Test results as given in patent EP1383793B1 (priority 2000, dated 2001).
pKd: −log10 of the molar value. Positions of bridges follow the written chain, without caps; N, C: chain ends. Residues, ends and D or L forms follow the SMILES beside them. *: point of attachment. Biotin = O=C1N[C@H]2[C@H](CS[C@H]2CCCCC(=O)*)N1

How the values were obtained:
[1] = target: T1, human insulin receptor (HIR) (Homo sapiens, UniProt P06213); experiment: 125I-insulin competition binding assay on solubilised purified receptor; details: read-out: Kd (µM) HIR
T1 construct: made in house

[2] = target: human IGF-1 receptor (HIGF-1R) (Homo sapiens, UniProt P08069); experiment: 125I-IGF-1 competition binding assay on solubilised purified receptor
Chain of human IGF-1 receptor (HIGF-1R) (P08069 31-736 limits assumed): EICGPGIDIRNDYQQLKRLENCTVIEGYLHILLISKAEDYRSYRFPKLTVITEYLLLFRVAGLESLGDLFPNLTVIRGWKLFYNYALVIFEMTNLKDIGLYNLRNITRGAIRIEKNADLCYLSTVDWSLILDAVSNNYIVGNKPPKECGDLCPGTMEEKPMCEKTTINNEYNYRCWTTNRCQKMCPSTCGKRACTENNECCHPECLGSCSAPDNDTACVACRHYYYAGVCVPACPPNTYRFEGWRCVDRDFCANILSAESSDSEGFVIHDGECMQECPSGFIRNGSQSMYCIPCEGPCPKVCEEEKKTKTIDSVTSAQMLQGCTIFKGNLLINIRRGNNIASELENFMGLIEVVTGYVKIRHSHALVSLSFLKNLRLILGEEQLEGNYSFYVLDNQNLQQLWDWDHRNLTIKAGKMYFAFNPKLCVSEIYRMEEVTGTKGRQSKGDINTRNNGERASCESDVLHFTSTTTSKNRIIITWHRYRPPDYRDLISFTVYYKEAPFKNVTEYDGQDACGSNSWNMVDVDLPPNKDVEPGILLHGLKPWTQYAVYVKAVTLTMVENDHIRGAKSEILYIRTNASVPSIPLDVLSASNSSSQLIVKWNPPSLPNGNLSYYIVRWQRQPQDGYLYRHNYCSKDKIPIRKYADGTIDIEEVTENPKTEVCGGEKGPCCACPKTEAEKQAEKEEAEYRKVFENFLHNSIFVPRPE
Chain of human IGF-1 receptor (HIGF-1R) (P08069 741-1367 limits assumed): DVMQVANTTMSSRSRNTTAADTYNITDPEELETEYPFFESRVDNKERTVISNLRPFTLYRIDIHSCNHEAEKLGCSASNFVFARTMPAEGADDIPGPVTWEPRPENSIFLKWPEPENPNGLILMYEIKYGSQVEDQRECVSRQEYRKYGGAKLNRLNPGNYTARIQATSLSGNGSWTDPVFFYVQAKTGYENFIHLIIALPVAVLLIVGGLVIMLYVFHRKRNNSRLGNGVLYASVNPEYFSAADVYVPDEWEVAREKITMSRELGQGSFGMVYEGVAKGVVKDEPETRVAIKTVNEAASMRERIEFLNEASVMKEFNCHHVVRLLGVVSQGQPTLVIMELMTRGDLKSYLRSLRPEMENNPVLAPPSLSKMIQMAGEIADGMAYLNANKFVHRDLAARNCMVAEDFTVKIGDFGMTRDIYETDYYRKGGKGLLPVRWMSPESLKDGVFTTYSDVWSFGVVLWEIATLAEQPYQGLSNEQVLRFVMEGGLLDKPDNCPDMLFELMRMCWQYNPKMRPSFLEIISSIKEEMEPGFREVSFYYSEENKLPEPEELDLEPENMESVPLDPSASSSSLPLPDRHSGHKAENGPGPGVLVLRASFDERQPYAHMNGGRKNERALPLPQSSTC

T1 sequence (P06213 28-758 limits assumed): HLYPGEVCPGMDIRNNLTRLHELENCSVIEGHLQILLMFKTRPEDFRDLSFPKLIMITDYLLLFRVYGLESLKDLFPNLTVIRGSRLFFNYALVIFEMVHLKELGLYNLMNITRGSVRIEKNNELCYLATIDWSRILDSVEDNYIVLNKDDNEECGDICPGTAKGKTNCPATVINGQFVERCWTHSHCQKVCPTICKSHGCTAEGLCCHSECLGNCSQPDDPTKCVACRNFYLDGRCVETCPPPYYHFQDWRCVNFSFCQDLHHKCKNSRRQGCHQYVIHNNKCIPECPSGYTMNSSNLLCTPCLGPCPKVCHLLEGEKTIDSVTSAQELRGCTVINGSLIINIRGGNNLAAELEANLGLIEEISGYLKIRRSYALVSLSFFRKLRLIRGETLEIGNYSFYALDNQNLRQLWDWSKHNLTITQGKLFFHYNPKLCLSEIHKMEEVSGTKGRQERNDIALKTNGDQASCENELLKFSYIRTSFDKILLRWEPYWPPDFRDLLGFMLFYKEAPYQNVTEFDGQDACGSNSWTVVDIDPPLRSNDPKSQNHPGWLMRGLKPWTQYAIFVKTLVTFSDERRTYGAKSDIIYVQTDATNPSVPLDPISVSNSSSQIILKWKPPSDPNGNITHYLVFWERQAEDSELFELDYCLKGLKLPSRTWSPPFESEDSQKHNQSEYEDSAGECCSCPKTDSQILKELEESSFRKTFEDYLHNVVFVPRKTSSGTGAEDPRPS
T1 sequence (P06213 763-1382 limits assumed): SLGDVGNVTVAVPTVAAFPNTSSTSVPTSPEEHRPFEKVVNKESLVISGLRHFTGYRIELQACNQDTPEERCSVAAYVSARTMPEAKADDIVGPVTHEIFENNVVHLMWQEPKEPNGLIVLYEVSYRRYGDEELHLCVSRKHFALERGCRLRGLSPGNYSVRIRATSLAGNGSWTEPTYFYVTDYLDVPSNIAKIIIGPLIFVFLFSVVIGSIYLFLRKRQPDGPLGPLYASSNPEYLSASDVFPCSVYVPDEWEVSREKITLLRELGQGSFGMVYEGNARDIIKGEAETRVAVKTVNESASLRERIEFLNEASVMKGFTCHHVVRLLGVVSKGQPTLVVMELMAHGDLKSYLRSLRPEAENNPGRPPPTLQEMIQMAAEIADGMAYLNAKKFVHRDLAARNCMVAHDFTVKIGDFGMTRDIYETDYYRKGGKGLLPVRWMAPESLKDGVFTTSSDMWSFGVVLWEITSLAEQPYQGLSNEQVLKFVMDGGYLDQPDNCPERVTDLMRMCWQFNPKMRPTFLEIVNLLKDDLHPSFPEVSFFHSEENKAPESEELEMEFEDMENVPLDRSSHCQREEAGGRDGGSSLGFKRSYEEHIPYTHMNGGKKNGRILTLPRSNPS

| Kd [1] | pKd [2] | Ratio ([2]; Kd HIGF1R / Kd HIR) | Structure (SMILES) |
| --- | --- | --- | --- |
| 20 µM | < 4.70 |  | CC(C)C[C@H](NC(=O)[C@H](C)NC(=O)[C@H](Cc1c[nH]c2ccccc12)NC(=O)[C@H](CO)NC(=O)[C@H](Cc1c[nH]cn1)NC(=O)CNC(=O)[C@@H](N)CCCCN)C(=O)N[C@H](C(=O)N[C@@H](CCCNC(=N)N)C(=O)N[C@@H](Cc1c[nH]cn1)C(=O)N[C@H](C(=O)N[C@@H](CC(=O)O)C(=O)N[C@@H](CCCNC(=N)N)C(=O)N[C@@H](CC(C)C)C(=O)N[C@@H](Cc1ccccc1)C(=O)N[C@@H](Cc1ccc(O)cc1)C(=O)N[C@@H](CCC(=O)O)C(=O)N[C@@H](Cc1c[nH]c2ccccc12)C(=O)N[C@@H](Cc1ccccc1)C(=O)N[C@@H](CC(=O)O)C(=O)N[C@@H](CC(C)C)C(=O)N[C@@H](CCCCN)C(=O)N[C@@H](CCCCNC(=O)CCCC[C@@H]1SC[C@@H]2NC(=O)N[C@@H]21)C(N)=O)C(C)C)C(C)C [Clone D104] (H-KGHSWALVRHVDRLFYEWFDLKK(Biotin)-NH2) |
| 2.8 µM | 4.92 |  | C[C@@H](O)[C@H](NC(=O)[C@@H]1CCCN1C(=O)[C@H](CCCCN)NC(=O)[C@H](CC(=O)O)NC(=O)[C@H](CCCNC(=N)N)NC(=O)[C@@H](N)CCCCN)C(=O)N[C@@H](CC(=O)O)C(=O)N[C@@H](CCC(N)=O)C(=O)N[C@@H](CCC(=O)O)C(=O)N[C@@H](CCC(=O)O)C(=O)N[C@@H](CCC(N)=O)C(=O)N[C@@H](CC(N)=O)C(=O)N[C@@H](Cc1c[nH]c2ccccc12)C(=O)N[C@@H](CO)C(=O)N[C@@H](Cc1ccccc1)C(=O)N[C@@H](Cc1ccc(O)cc1)C(=O)N[C@@H](CCC(=O)O)C(=O)N[C@@H](Cc1c[nH]c2ccccc12)C(=O)N[C@@H](Cc1ccccc1)C(=O)N[C@@H](CCCNC(=N)N)C(=O)N[C@@H](Cc1c[nH]cn1)C(=O)N[C@@H](CCCCN)C(=O)N[C@@H](CCCCNC(=O)CCCC[C@@H]1SC[C@@H]2NC(=O)N[C@@H]21)C(N)=O [Clone D105] (H-KRDKPTDQEEQNWSFYEWFRHKK(Biotin)-NH2) |
| 0.97 µM | 5.21 |  | CC(C)C[C@H](NC(=O)[C@H](CCC(N)=O)NC(=O)[C@H](CCC(N)=O)NC(=O)[C@H](CO)NC(=O)[C@H](CCCNC(=N)N)NC(=O)[C@H](CS)NC(=O)[C@H](CC(N)=O)NC(=O)[C@H](Cc1c[nH]c2ccccc12)NC(=O)[C@H](Cc1ccccc1)NC(=O)[C@@H](NC(=O)[C@@H](N)CCCCN)C(C)C)C(=O)N[C@@H](CC(=O)O)C(=O)N[C@@H](Cc1ccccc1)C(=O)N[C@@H](Cc1ccc(O)cc1)C(=O)N[C@@H](CCC(=O)O)C(=O)N[C@@H](Cc1c[nH]c2ccccc12)C(=O)N[C@@H](Cc1ccccc1)C(=O)N[C@@H](CCC(=O)O)C(=O)N[C@@H](CCC(N)=O)C(=O)N[C@@H](C)C(=O)N[C@@H](C)C(=O)N[C@@H](CCCCN)C(=O)N[C@@H](CCCCNC(=O)CCCC[C@@H]1SC[C@@H]2NC(=O)N[C@@H]21)C(N)=O [Clone D106] (H-KVFWNCRSQQLDFYEWFEQAAKK(Biotin)-NH2) |
|  |  | >200 | CC(C)C[C@@H]1NC(=O)[C@H](CO)NC(=O)[C@H](C)NC(=O)CNC(=O)[C@H](Cc2c[nH]c3ccccc23)NC(=O)[C@H](Cc2ccccc2)NC(=O)[C@H](CC(C)C)NC(=O)[C@H](CCC(=O)O)NC(=O)[C@H](CCC(=O)O)NC(=O)[C@H](CC(C)C)NC(=O)[C@H](C(C)C)NC(=O)[C@@H](NC(=O)[C@H](CC(C)C)NC(=O)[C@H](Cc2c[nH]cn2)NC(=O)[C@@H](N)CCCCN)CSSC[C@@H](C(=O)N[C@@H](CO)C(=O)NCC(=O)N[C@@H](CCCCN)C(=O)N[C@@H](CCCCNC(=O)CCCC[C@@H]2SC[C@@H]3NC(=O)N[C@@H]32)C(=O)O)NC(=O)[C@H](Cc2ccc(O)cc2)NC(=O)CNC(=O)[C@H](Cc2ccccc2)NC1=O [Clone D124A] (H-KHLCVLEELFWGASLFGYCSGKK(Biotin)-OH; disulfide 4-19 (inferred); N-terminus assumed) |
